Source: patent publication US12404289B2 (Gilead Sciences, Inc., priority 2020, dated 2025)
Read-outs that look alike come from different tables or passages of the source.

Legend:
Type in all cases: cell-based
[1] = test system: Respiratory syncytial virus (RSV) strain A2; test: Hep-2 RSV2 384-well assay (EC50-HEP2-384); settings: HEp-2 cells, RSV A2, MOI=4, 4 days, Table 3
SARS-CoV-2 = SARS-CoV-2 antiviral assay (A549-hACE2, Nano luciferase); settings: Table 4
[2] = test system: Respiratory syncytial virus (RSV) strain A2; test: RSV antiviral assay (HEp-2, 96 well); settings: Table 3
[3] = human respiratory syncytial virus, HEp-2, 96 h
[4] = Severe acute respiratory syndrome coronavirus 2, 48 h, A549-hACE2 cells, SARS-CoV2-Nano, MOI 0.025, 48 h, read-out: EC50 SARS CoV2
[5] = human respiratory syncytial virus, HEp-2, 96 h, read-out: EC50 RSV HEP2 96, HEp-2 cells, RSV A2, MOI=4, 4 days, 96 well
[6] = A549-hACE2 cells, SARS-CoV2-Nano, MOI 0.025, 48 h, read-out: EC50 SARS CoV2
[7] = read-out: EC50 RSV HEP2 96, HEp-2 cells, RSV A2, MOI=4, 4 days, 96 well

CC(C)C(=O)O[C@H]1[C@@H](OC(=O)C(C)C)[C@](C#N)(c2ccc3c(N)ncnn23)O[C@@H]1COP(=O)(N[C@@H](C)C(=O)OC1CCCCC1)Oc1ccc(C(C)(C)C)cc1 (stereo partly drawn) [Example 149, (2R,3R,4R,5R)-2-(4-aminopyrrolo[2,1-f][1,2,4]triazin-7-yl)-5-((((4-(tert-butyl)phenoxy)(((S)-1-(cyclohexyloxy)-1-oxopropan-2-yl)amino)phosphoryl)oxy)methyl)-2-cyanotetrahydrofuran-3,4-diyl bis(2-methylpropanoate)]
EC50 [1, 3]: 99.4 nM

CCC(=O)O[C@H]1[C@@H](OC(=O)CC)[C@](C#N)(c2ccc3c(N)ncnn23)O[C@@H]1COP(=O)(N[C@@H](C)C(=O)OCC(C)(C)OC)Oc1ccc(C(C)(C)C)cc1 (stereo partly drawn) [Example 130, (2R,3R,4R,5R)-2-(4-aminopyrrolo[2,1-f][1,2,4]triazin-7-yl)-5-((((4-(tert-butyl)phenoxy)(((S)-1-(2-methoxy-2-methylpropoxy)-1-oxopropan-2-yl)amino)phosphoryl)oxy)methyl)-2-cyanotetrahydrofuran-3,4-diyl Dipropionate]
EC50 [1, 3]: 52.8 nM

CC(C)C(=O)O[C@H]1[C@@H](OC(=O)C(C)C)[C@](C#N)(c2ccc3c(N)ncnn23)O[C@@H]1COP(=O)(N[C@@H](C)C(=O)OCC1CCC1)Oc1ccc(C(C)(C)C)cc1 (stereo partly drawn) [Example 60, [(2R,3R,4R,5R)-5-(4-aminopyrrolo[2,1-f][1,2,4]triazin-7-yl)-2-[[(4-tert-butylphenoxy)-[[(1S)-2-(cyclobutylmethoxy)-1-methyl-2-oxo-ethyl]amino]phosphoryl]oxymethyl]-5-cyano-4-(2-methylpropanoyloxy)tetrahydrofuran-3-yl] 2-methylpropanoate]
EC50 (SARS-CoV-2; [4]): 180 nM | EC50 [2, 5]: 64 nM

CCC(CC)COC(=O)[C@H](C)N[P@@](=O)(OC[C@H]1O[C@@](C#N)(c2ccc3c(N)ncnn23)[C@H](OC(C)=O)[C@@H]1OC(C)=O)Oc1cccc2c1CCCC2 [Example 147, (2R,3R,4R,5R)-2-(4-aminopyrrolo[2,1-f][1,2,4]triazin-7-yl)-2-cyano-5-((((R)—(((S)-1-(2-ethylbutoxy)-1-oxopropan-2-yl)amino)((5,6,7,8-tetrahydronaphthalen-1-yl)oxy)phosphoryl)oxy)methyl)tetrahydrofuran-3,4-diyl Diacetate]
EC50 [1]: 334 nM

CCC(=O)O[C@H]1[C@@H](OC(=O)CC)[C@](C#N)(c2ccc3c(N)ncnn23)O[C@@H]1COP(=O)(N[C@@H](C)C(=O)OCC(CC)CC)Oc1cccc2ccccc12 (single isomer, unassigned) [Example 79a]
EC50 (SARS-CoV-2; [6]): 126 nM | EC50 [2, 7]: 61.2 nM

C[C@H](NP(=O)(OC[C@H]1O[C@@](C#N)(c2ccc3c(N)ncnn23)[C@H](O)[C@@H]1O)Oc1ccc(C(C)(C)C)cc1)C(=O)OCC1CCC1 (stereo partly drawn) [Example 59, cyclobutylmethyl (2S)-2-[[[(2R,3S,4R,5R)-5-(4-aminopyrrolo[2,1-f][1,2,4]triazin-7-yl)-5-cyano-3,4-dihydroxy-tetrahydrofuran-2-yl]methoxy-(4-tert-butylphenoxy)phosphoryl]amino]propanoate]
EC50 (SARS-CoV-2; [4]): 160 nM | EC50 [2, 5]: 25.3 nM

CCC(C)(C)COC(=O)[C@H](C)NP(=O)(OC[C@H]1O[C@@](C#N)(c2ccc3c(N)ncnn23)[C@H](O)[C@@H]1O)Oc1ccc(C(C)(C)C)cc1 (stereo partly drawn) [Example 121, 2,2-dimethylbutyl ((((2R,3S,4R,5R)-5-(4-aminopyrrolo[2,1-f][1,2,4]triazin-7-yl)-5-cyano-3,4-dihydroxytetrahydrofuran-2-yl)methoxy)(4-(tert-butyl)phenoxy)phosphoryl)-L-alaninate]
EC50 (SARS-CoV-2; [4]): 110 nM | EC50 [2, 5]: 23.5 nM

CCC(=O)O[C@H]1[C@@H](OC(=O)CC)[C@](C#N)(c2ccc3c(N)ncnn23)O[C@@H]1COP(=O)(N[C@@H](C)C(=O)OC1CCC1)Oc1ccccc1 (stereo partly drawn) [Example 107, (2R,3R,4R,5R)-2-(4-aminopyrrolo[2,1-f][1,2,4]triazin-7-yl)-2-cyano-5-((((((S)-1-cyclobutoxy-1-oxopropan-2-yl)amino)(phenoxy)phosphoryl)oxy)methyl)tetrahydrofuran-3,4-diyl Dipropionate]
EC50 (SARS-CoV-2; [4]): 180 nM | EC50 [2, 5]: 20.1 nM

CCOC(=O)[C@H](C)NP(=O)(OC[C@H]1O[C@@](C#N)(c2ccc3c(N)ncnn23)[C@H](OC(=O)CC)[C@@H]1OC(=O)CC)Oc1ccc(C(C)(C)C)cc1 (stereo partly drawn) [Example 108, (2R,3R,4R,5R)-2-(4-aminopyrrolo[2,1-f][1,2,4]triazin-7-yl)-5-((((4-(tert-butyl)phenoxy)(((S)-1-ethoxy-1-oxopropan-2-yl)amino)phosphoryl)oxy)methyl)-2-cyanotetrahydrofuran-3,4-diyl Dipropionate]
EC50 (SARS-CoV-2; [4]): 82.9 nM | EC50 [2, 5]: 27.7 nM

C[C@H](NP(=O)(OC[C@H]1O[C@@](C#N)(c2ccc3c(N)ncnn23)[C@H](O)[C@@H]1O)Oc1cccc2ccccc12)C(=O)OC1CCC1 (single isomer, unassigned) [Intermediate P7a-2]
EC50 (SARS-CoV-2; Severe acute respiratory syndrome coronavirus 2, 48 h, read-out: EC50 SARS CoV2, A549-hACE2 cells, SARS-CoV2-Nano, MOI 0.025, 48 h): 275 nM | EC50 [2, 7]: 65.1 nM

CC(=O)O[C@H]1[C@@H](OC(C)=O)[C@](C#N)(c2ccc3c(N)ncnn23)O[C@@H]1COP(=O)(N[C@@H](C)C(=O)OC1CCC1)Oc1ccc(C2CC2)cc1 (single isomer, unassigned) [Example 53b]
EC50 (SARS-CoV-2; [4]): 103 nM | EC50 [2, 7]: 21.2 nM

CCC(CC)COC(=O)[C@H](C)NP(=O)(OC[C@H]1O[C@@](C#N)(c2ccc3c(N)ncnn23)[C@H](OC(=O)C(C)C)[C@@H]1OC(=O)C(C)C)Oc1cccc2ccccc12 (stereo partly drawn) [Example 70, [(2R,3R,4R,5R)-5-(4-aminopyrrolo[2,1-f][1,2,4]triazin-7-yl)-5-cyano-2-[[[[(1S)-2-(2-ethylbutoxy)-1-methyl-2-oxo-ethyl]amino]-(1-naphthyloxy)phosphoryl]oxymethyl]-4-(2-methylpropanoyloxy)tetrahydrofuran-3-yl] 2-methylpropanoate]
EC50 (SARS-CoV-2; [4]): 319 nM | EC50 [2, 5]: 49 nM

CC(C)C(=O)O[C@H]1[C@@H](OC(=O)C(C)C)[C@](C#N)(c2ccc3c(N)ncnn23)O[C@@H]1COP(=O)(N[C@@H](C)C(=O)OC1CC2(CCC2)C1)Oc1ccc(C(C)(C)C)cc1 (stereo partly drawn) [Example 66, [(2R,3R,4R,5R)-5-(4-aminopyrrolo[2,1-f][1,2,4]triazin-7-yl)-2-[[(4-tert-butylphenoxy)-[[(1S)-1-methyl-2-oxo-2-spiro[3.3]heptan-2-yloxy-ethyl]amino]phosphoryl]oxymethyl]-5-cyano-4-(2-methylpropanoyloxy)tetrahydrofuran-3-yl] 2-methylpropanoate]
EC50 (SARS-CoV-2; [4]): 207 nM | EC50 [2, 5]: 61.9 nM

CC(C)COC(=O)[C@H](C)NP(=O)(OC[C@H]1O[C@@](C#N)(c2ccc3c(N)ncnn23)[C@H](O)[C@@H]1O)Oc1ccc(C(C)(C)C)cc1 (stereo partly drawn) [Example 118, isobutyl ((((2R,3S,4R,5R)-5-(4-aminopyrrolo[2,1-f][1,2,4]triazin-7-yl)-5-cyano-3,4-dihydroxytetrahydrofuran-2-yl)methoxy)(4-(tert-butyl)phenoxy)phosphoryl)-L-alaninate]
EC50 (SARS-CoV-2; [4]): 329 nM | EC50 [2, 5]: 23.5 nM

CCC(=O)O[C@H]1[C@@H](OC(=O)CC)[C@](C#N)(c2ccc3c(N)ncnn23)O[C@@H]1COP(=O)(N[C@@H](C)C(=O)OC1CC2(CCC2)C1)Oc1cccc2ccccc12 (single isomer, unassigned) [Example 87a]
EC50 (SARS-CoV-2; [6]): 60.2 nM | EC50 [2, 7]: 31.1 nM

CCC(=O)O[C@H]1[C@@H](OC(=O)CC)[C@](C#N)(c2ccc3c(N)ncnn23)O[C@@H]1COP(=O)(N[C@@H](C)C(=O)OC)Oc1ccc(C(C)(C)C)cc1 (stereo partly drawn) [Example 113, (2R,3R,4R,5R)-2-(4-aminopyrrolo[2,1-f][1,2,4]triazin-7-yl)-5-((((4-(tert-butyl)phenoxy)(((S)-1-methoxy-1-oxopropan-2-yl)amino)phosphoryl)oxy)methyl)-2-cyanotetrahydrofuran-3,4-diyl Dipropionate]
EC50 (SARS-CoV-2; [4]): 126 nM | EC50 [2, 5]: 22.1 nM

CCC(=O)O[C@H]1[C@@H](OC(=O)CC)[C@](C#N)(c2ccc3c(N)ncnn23)O[C@@H]1COP(=O)(N[C@@H](C)C(=O)OC1CCC1)Oc1ccc(C2CC2)cc1 (single isomer, unassigned) [Example 54b]
EC50 (SARS-CoV-2; [6]): 164 nM | EC50 [2, 7]: 20.9 nM

CCC(=O)O[C@H]1[C@@H](OC(=O)CC)[C@](C#N)(c2ccc3c(N)ncnn23)O[C@@H]1COP(=O)(N[C@@H](C)C(=O)OC1CCC1)Oc1ccc(C2CC2)cc1 (single isomer, unassigned) [Example 54a]
EC50 (SARS-CoV-2; [4]): 102 nM | EC50 [2, 5]: 13.1 nM

CCC(CC)COC(=O)[C@H](C)NP(=O)(OC[C@H]1O[C@@](C#N)(c2ccc3c(N)ncnn23)[C@H](O)[C@@H]1O)Oc1cccc2ccccc12 (stereo partly drawn) [Intermediate S2, 2-Ethylbutyl ((((2R,3S,4R,5R)-5-(4-aminopyrrolo[2,1-f][1,2,4]triazin-7-yl)-5-cyano-3,4-dihydroxytetrahydrofuran-2-yl)methoxy)(naphthalen-1-yloxy)phosphoryl)-L-alaninate]
EC50 (SARS-CoV-2; [4]): 207 nM | EC50 [2, 5]: 84.8 nM

CCC(CC)COC(=O)[C@H](C)NP(=O)(OC[C@H]1O[C@@](C#N)(c2ccc3c(N)ncnn23)[C@H](OC(C)=O)[C@@H]1OC(C)=O)Oc1cccc2ccccc12 (single isomer, unassigned) [Example 78a]
EC50 (SARS-CoV-2; [6]): 117 nM | EC50 [2, 7]: 65.2 nM

CCOC(=O)[C@H](C)NP(=O)(OC[C@H]1O[C@@](C#N)(c2ccc3c(N)ncnn23)[C@H](O)[C@@H]1O)Oc1cccc2ccccc12 (stereo partly drawn) [Intermediate S1, ethyl (2S)-2-[[[(2R,3S,4R,5R)-5-(4-aminopyrrolo[2,1-f][1,2,4]triazin-7-yl)-5-cyano-3,4-dihydroxy-tetrahydrofuran-2-yl]methoxy-(1-naphthyloxy)phosphoryl]amino]propanoate]
EC50 (SARS-CoV-2; [4]): 714 nM | EC50 [2, 5]: 93.3 nM
